Results on two compounds are retold here after patent publication US4544659A, “Schistosomicidal acridanone hydrazones” (Hoffman-La Roche Inc., priority 1982, dated 1985).

Bounds are passed on as bounds.

In one data set the test system is Schistosoma mansoni. In words: Schistosomicidal activity in infected mice (reduction in number of worms, single peroral treatment). In kind it is in vivo, Schistosoma mansoni (Liberia strain) in albino mice. The following applies: po, read-out: VD50 (vermicidal dosage which brings about a 50 percent reduction in the number of worms). As for the experimental part:
Albino mice weighing 15-18 g are infected subcutaneously with 60±5 cercaria of a Liberia strain of Schistosoma mansoni. Forty-six (46) days after infection, the animals are treated once perorally with the test substance. There are 5-10 animals used per substance and dosage. There are 10 untreated animals used as controls. The autopsies are carried out after 60 days. Whereupon worm pairs and individual worms in the mesenteric veins, portal vein and liver are dissected out and counted.
For the evaluation, the percentage reduction in parasites in treated animals in comparison to untreated control animals is calculated. The VD50 is determined according to the Probit method. The VD50 is that vermicidal dosage which brings about a 50 percent reduction in the number of worms.
(§1) The Table which follows contains the results obtained with representative compounds of the invention. In the Table there are given VD50 in mg/kg p.o. and the LD50 in mg/kg in the case of single oral administration to mice.

Data set [1] in a line: Acute toxicity, single oral administration to mice. The following applies: mouse, in vivo, p.o.
From the text: as §1

What is called LD50 is the dose at which mortality reaches 50%. As for `c1ccc2c(=NN=C3NCCS3)c3ccccc3[nH]c2c1` [9-acridanone (2-thiazolidinylidene)hydrazone], the ED50 with Schistosoma mansoni was 26 mg/kg. In data set [1], this compound returned an LD50 of 1250 to 2500 mg/kg.

As for `Cl.Cn1c2ccccc2c(=NNc2nccs2)c2ccccc21` [10-methyl-9-acridanone (2-thiazolyl)hydrazone hydrochloride], the ED50 with Schistosoma mansoni stood at 9 mg/kg. The same compound came in with an LD50 in data set [1] of over 5000 mg/kg.
